Experimental data taken from ChEMBL document CHEMBL5550143, “Modulation of proteasome subunit selectivity of syringolins” (Bioorg Med Chem, 2024).
One block for each compound: values may come before it. Activity calls are given as the source filed them. The calls are words filed in the database; no cut-off is given here.

Key:
LNCaP = assay: Cytotoxicity against human LNCaP cells incubated for 72 hrs by CCK8 assay
DU-145 = assay: Cytotoxicity against human DU-145 cells incubated for 72 hrs by CCK8 assay; details: DU-145, 72 h
MM1.S = assay: Cytotoxicity against human MM1.S cells; assay type: functional, cell-based
[1] = molecular target: T1, Proteasome Macropain subunit MB1 (Homo sapiens, UniProt P28074); assay: Inhibition of 20S proteasome beta-5 in human erythrocytes using Suc-LLVY-AMC as substrate by AK-740 assay; design: species or system Erythrocyte
T1 sequence (P28074 whole entry): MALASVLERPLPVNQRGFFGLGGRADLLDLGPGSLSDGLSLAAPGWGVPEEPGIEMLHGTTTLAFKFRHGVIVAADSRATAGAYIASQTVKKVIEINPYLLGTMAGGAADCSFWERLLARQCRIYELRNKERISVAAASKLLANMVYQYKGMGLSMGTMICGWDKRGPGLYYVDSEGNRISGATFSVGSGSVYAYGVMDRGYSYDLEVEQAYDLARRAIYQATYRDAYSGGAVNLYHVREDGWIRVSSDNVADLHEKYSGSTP

[2] = molecular target: T2, Proteasome component C5 (Homo sapiens) (UniProt P20618); assay: Inhibition of 20S proteasome beta-1 (unknown origin) upto 150 uM
T2 sequence (whole entry): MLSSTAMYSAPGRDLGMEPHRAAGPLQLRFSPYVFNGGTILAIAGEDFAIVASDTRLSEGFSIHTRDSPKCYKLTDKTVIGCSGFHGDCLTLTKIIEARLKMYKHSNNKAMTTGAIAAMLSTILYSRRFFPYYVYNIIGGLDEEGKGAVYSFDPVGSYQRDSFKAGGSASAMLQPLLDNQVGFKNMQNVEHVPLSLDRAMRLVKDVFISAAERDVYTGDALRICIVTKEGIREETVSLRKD

Compound: CCCCCCCCCC(=O)N[C@@H](Cc1ccccc1)C(=O)N[C@H]1CCCCNC(=O)/C=C/[C@H](Cc2ccc(O)cc2)NC1=O
IC50 (LNCaP): 575 nM
IC50 (DU-145): > 1000 nM

Compound: CCCCCCCCCC(=O)N[C@@H](Cc1ccccc1)C(=O)N[C@H]1CCCCNC(=O)/C=C/[C@H](CC(=O)O)NC1=O
IC50 (LNCaP): > 1000 nM
IC50 (DU-145): > 1000 nM

Compound: CC(C)[C@H](NC(=O)N[C@H](C(=O)N[C@H]1/C=C/CCNC(=O)/C=C/[C@H](C(C)C)NC1=O)C(C)C)C(=O)O
IC50 (MM1.S): 8500 nM

Compound: CCCCCCCCCC(=O)N[C@@H](Cc1ccccc1)C(=O)N[C@H]1CCCCNC(=O)/C=C/[C@H](Cc2ccc(N)cc2)NC1=O
IC50 (LNCaP): 181 nM
IC50 (DU-145): 292 nM

Ki [1]: > 10000 nM
Compound: CCCCCCCCCC(=O)N[C@@H](Cc1ccccc1)C(=O)N[C@H]1CCCCNC(=O)/C=C/[C@H](CCC(=O)O)NC1=O
IC50 (LNCaP): > 1000 nM
IC50 (DU-145): > 1000 nM

Compound: CCCCCCCCCC(=O)N[C@@H](Cc1ccccc1)C(=O)N[C@H]1CCCCNC(=O)/C=C/[C@H](Cc2ccc(C#N)cc2)NC1=O
IC50 (LNCaP): 920 nM
IC50 (DU-145): > 1000 nM

Compound: CC(C)[C@H](NC(=O)N[C@H](C(=O)N[C@H]1CCCCNC(=O)/C=C/[C@H](C(C)C)NC1=O)C(C)C)C(=O)O
inhibition [2]: inactive

Compound: CCCCCCCCCC(=O)N[C@@H](Cc1ccccc1)C(=O)N[C@H]1CCCCNC(=O)/C=C/[C@H](Cc2ccc(CN)cc2)NC1=O
IC50 (LNCaP): > 1000 nM
IC50 (DU-145): > 1000 nM

Compound: CCCCCCCCCC(=O)N[C@@H](Cc1ccccc1)C(=O)N[C@H]1CCCCNC(=O)/C=C/[C@H](Cc2ccc(NC(=N)N)cc2)NC1=O
IC50 (LNCaP): > 1000 nM
IC50 (DU-145): > 1000 nM

Compound: CCCCCCCCCC(=O)N[C@@H](Cc1ccccc1)C(=O)N[C@H]1CCCCNC(=O)/C=C/[C@H](Cc2ccc(CN(C)C)cc2)NC1=O
IC50 (LNCaP): > 1000 nM
IC50 (DU-145): > 1000 nM

Compound: CCCCCCCCCC(=O)N[C@@H](Cc1ccccc1)C(=O)N[C@H]1CCCCNC(=O)/C=C/[C@H](Cc2ccc(OC)cc2)NC1=O
IC50 (LNCaP): 116 nM
IC50 (DU-145): 487 nM

Compound: CCCCCCCCCC(=O)N[C@@H](Cc1ccccc1)C(=O)N[C@H]1CCCCNC(=O)/C=C/[C@H](Cc2ccc(C(N)=O)cc2)NC1=O
IC50 (LNCaP): > 1000 nM
IC50 (DU-145): > 1000 nM

Compound: CCCCCCCCCC(=O)N[C@@H](Cc1ccccc1)C(=O)N[C@H]1CCCCNC(=O)/C=C/[C@H](C(C)C)NC1=O
IC50 (LNCaP): 91.2 nM
IC50 (DU-145): 119 nM

Compound: CCCCCCCCCC(=O)N[C@@H](Cc1ccccc1)C(=O)N[C@H]1CCCCNC(=O)/C=C/[C@H](Cc2ccc(NC)cc2)NC1=O
IC50 (LNCaP): 103 nM
IC50 (DU-145): 142 nM

Compound: CCCCCCCCCC(=O)N[C@@H](Cc1ccccc1)C(=O)N[C@H]1CCCCNC(=O)/C=C/[C@H](Cc2ccccc2)NC1=O
IC50 (LNCaP): 43.5 nM
IC50 (DU-145): 49.1 nM

Compound: CCCCCCCCCC(=O)N[C@@H](Cc1ccccc1)C(=O)N[C@H]1CCCCNC(=O)/C=C/[C@H](Cc2ccc(C(=O)O)cc2)NC1=O
IC50 (LNCaP): > 1000 nM
IC50 (DU-145): > 1000 nM

Compound: CCCCCCCCCC(=O)N[C@@H](Cc1ccccc1)C(=O)N[C@H]1CCCCNC(=O)/C=C/[C@H](Cc2ccc([N+](=O)[O-])cc2)NC1=O
IC50 (LNCaP): > 1000 nM
IC50 (DU-145): > 1000 nM

Compound: CCCCCCCCCC(=O)N[C@@H](Cc1ccccc1)C(=O)N[C@H]1CCCCNC(=O)/C=C/[C@H](Cc2ccc(B(O)O)cc2)NC1=O
IC50 (LNCaP): 882 nM
IC50 (DU-145): 723 nM

Compound: CCCCCCCCCC(=O)N[C@@H](Cc1ccccc1)C(=O)N[C@H]1CCCCNC(=O)/C=C/[C@H](Cc2ccc(N(C)C)cc2)NC1=O
IC50 (LNCaP): 94 nM
IC50 (DU-145): 101 nM

Compound: CCCCCCCCCC(=O)N[C@@H](Cc1ccccc1)C(=O)N[C@H]1CCCCNC(=O)/C=C/[C@H](Cc2ccc(CC(=N)N)cc2)NC1=O
IC50 (LNCaP): > 1000 nM
IC50 (DU-145): > 1000 nM
